# Patent US20070219224A1, “Compositions and Methods Relating to Pyrimidine Synthesis Inhibitors” (UAB RESEARCH FOUNDATION, THE, priority 2004, published 2007)
# Entries after “also recorded” stand apart in the source; their conditions may differ. Like-named read-outs stand apart in the source and are kept apart here. Marks after values point to notes of the source that are not given here.
# What was measured:
# UTP/ATP content of BALF = assay: Measurement of nucleotides (UTP/ATP content) in BALF of RSV-infected mice; assay type: in vivo, BALB/c mice
# Experimental: (§1) Preparation of viral inocula and infection of mice. Preparation of viral stocks and intranasal infection of eight to twelve week-old pathogen-free BALB/c mice of either sex with RSV strain A2 (10^6 PFU in 100 μl) were performed as described in Davis et al., “Nucleotide-mediated inhibition of alveolar fluid clearance in BALB/c mice after respiratory syncytial virus infection,” Am. J. Physiol. Lung Cell Mol. Physiol. 286:L112-L120. (2004). Data for each experimental group was derived from a minimum of 2 independent infections.
# (§2) Bronchoalveolar lavage. Bronchoalveolar lavage fluid (BALF) was collected as previously described in Davis et al., (2004), using 1 ml of sterile normal saline for cytokine ELISAs, or 0.3 ml of sterile saline for nucleotide assays. Lavagates were centrifuged to remove cells and supernatants stored at −80° C.
# Measurement of nucleotides in BALF. Endogenous nucleotidases in BALF were heat denatured (100° C., 3 minutes) and UTP/ATP content measured using the […] and luciferine-luciferase assays, respectively.
# (§3) Systemic inhibition of de novo pyrimidine and purine synthesis. Leflunomide (5-methylisoxazole-4-[4-trifluoromethyl]carboxanilide, 35 mg/kg in distilled water containing 1% methylcellulose) was administered once daily by oral gavage in a volume of 300 μl/mouse for 8 days prior to infection, then throughout the infection period. Vehicle controls were gavaged with an equivalent volume of 1% methylcellulose in distilled water. […]
# [1] = assay type: in vivo; settings: for body weight loss after RSV infection: D1 and d2 p.i., versus untreated RSV-infected mice
# Experimental: as §1, §3
# uninfected BALB/c mice = assay: Alveolar fluid clearance (AFC) in uninfected or mock-infected mice; assay type: in vivo; settings: for effect on AFC in uninfected / normal (mock-infected) mice (in words): leflunomide oral gavage
# Experimental: Systemic inhibition of de novo pyrimidine and purine synthesis. […] Vehicle controls were gavaged with an equivalent volume of 1% methylcellulose in distilled water. Uridine (1 g/kg in 0.9% NaCl) was administered by i.p. injection every 12 hours in a volume of 100 μl (8). […]
# (§4) AFC studies were performed on anesthetized, ventilated BALB/c mice with normal body temperature and blood gases, over a 30 minute period after intratracheal instillation of 0.3 ml of isosmolar NaCl containing 5% fatty acid-free BSA. The number of mice analyzed per group is listed in the relevant bar of each graph.
# RSV strain A2 = assay: RSV replication in mouse lungs; assay type: in vivo, Respiratory syncytial virus; settings: for virus replication in lung tissue at d2: RSV-infected mice, day 2 p.i., systemic treatment
# Experimental: as §1, §3
# RSV-infected BALB/c mice [2] = assay: Alveolar fluid clearance (AFC) in RSV-infected mice at day 2 p.i.; assay type: in vivo; settings: for effect on RSV-mediated inhibition of AFC at d2 (in words): systemic treatment (leflunomide oral gavage; uridine, 6-MP i.p.)
# Experimental: Preparation of viral inocula and infection of mice. […] J. Physiol. Lung Cell Mol. Physiol. […] Data for each experimental group was derived from a minimum of 2 independent infections.
# (§5) Systemic inhibition of de novo pyrimidine and purine synthesis. Leflunomide (5-methylisoxazole-4-[4-trifluoromethyl]carboxanilide, 35 mg/kg in distilled water containing 1% methylcellulose) was administered once daily by oral gavage in a volume of 300 μl/mouse for 8 days prior to infection, then throughout the infection period. Vehicle controls were gavaged with an equivalent volume of 1% methylcellulose in distilled water.
# To systemically block de novo pyrimidine synthesis, mice were gavaged once daily for 8 days with […] of the dihydro-orotate reductase (DHOR) inhibitor leflunomide ([…] suspended in 1% methylcellulose) or vehicle prior to infection, then at 0 and 24 hours p.i. AFC studies were performed at 48 hours p.i., with no additions to the AFC instillate.
# as §4
# [3] = test system: IFN-α, IL-1β, KC, TNF-α in BALF; assay: Measurement of proinflammatory cytokines in BALF (ELISA); assay type: in vivo, BALB/c mice; settings: RSV-infected mice, d2
# Experimental: as §1, §2
# as §5, with “water. […].” for “water.”
# Measurement of proinflammatory cytokines in BALF. Cytokine levels were determined using Quantikine M ELISA kits (R & D Systems), in accordance with manufacturer's instructions.
# RSV-infected BALB/c mice [4] = assay: Heart rate change with ventilation (% ΔHR30), ECG; assay type: in vivo; settings: RSV-infected mice during AFC procedures, d2
# Experimental: Measurement of heart rate changes with ventilation. ECG tracings were used to measure heart rate (number of QRS complexes/cm) at the start (HRSTART) and end (HREND) of the AFC assay. The % change in rate over the 30-minute ventilation period (% ΔHR30) was calculated as (HRSTART−HREND)/HRSTART.
# as §5, with “water. Uridine (1 g/kg in 0.9% NaCl) was administered by i.p. injection every 12 hours in a volume of 100 μl (8). 6-MP (35 mg/kg in 1N NaOH, pH adjusted to 7.9 with 2 M Na2HPO4) was administered by i.p. injection every 24 hours in a volume of 100 μl, for 5 days prior to infection, then throughout the infection period.” for “water.”
# RSV-infected BALB/c mice [5] = assay: Mean peripheral blood oxygen saturation (SmO2), pulse oximetry; assay type: in vivo; settings: d2
# Experimental: Measurement of mean peripheral blood oxygen saturation. Peripheral blood oxygen saturation was measured in conscious mice, using a PREEMIE OXYTIP® sensor (Datex-Olmeda, hic., Madison, Wis.), connected to a TUFFSAT™ pulse oximeter (Datex-Ohmeda, Inc., Madison, Wis.). Because of the extremely rapid pulse rate of the mouse, oximetry values are mean hemoglobin O2 saturation (SmO2) values from arterial and venous blood.
# as §5, with “water. Uridine (1 g/kg in 0.9% NaCl) was administered by i.p. injection every 12 hours in a volume of 100 μl (8). 6-MP (35 mg/kg in 1N NaOH, pH adjusted to 7.9 with 2 M Na2HPO4) was administered by i.p. injection every 24 hours in a volume of 100 μl, for 5 days prior to infection, then throughout the infection period.” for “water.”
# [6] = d2, leflunomide 35 mg/kg oral gavage once daily, uridine 1 g/kg i.p. every 12 hours
smiles,measurement,setting,value
"Cc1oncc1C(=O)Nc1ccc(C(F)(F)F)cc1 [Leflunomide, 5-methylisoxazole-4-[4-trifluoromethyl]carboxanilide]","effect on BALF nucleotide (UTP, ATP) levels (in words)",UTP/ATP content of BALF; d2,"No increase in BALF nucleotide levels was detected; also recorded: reduced BALF content of both nucleotides to levels below those in untreated, uninfected mice"
same,"ATP, mean nucleotide concentration in BALF ± SE",UTP/ATP content of BALF; [6],6 ± 1 nmol/L
same,"UTP, mean nucleotide concentration in BALF ± SE",UTP/ATP content of BALF; [6],5 ± 2 nmol/L
same,body weight loss after RSV infection,[1],significantly reduced the degree of weight loss
same,body weight loss after RSV infection,[1]; listed as LEF,significant reduction in weight loss
same,body weight loss after RSV infection,[1]; listed as leflunomide,significantly reduced the degree of weight loss
same,body weight during the pretreatment (preinfection) period,"[1]; before RSV infection, leflunomide 8 days, 6-MP 5 days",no significant decline in body weight
same,toxicity (inferred from body weight),"[1]; mouse, in vivo",very limited leflunomide toxicity
same,effect on AFC in uninfected / normal (mock-infected) mice (in words),uninfected BALB/c mice,no detrimental effect on AFC
same,effect on AFC in uninfected / normal (mock-infected) mice (in words),uninfected BALB/c mice; listed as LEF,no effect on AFC
same,effect on AFC in uninfected / normal (mock-infected) mice (in words),uninfected BALB/c mice; listed as leflunomide,significant inhibition of AFC
same,AFC30BASAL (mean % basal AFC after 30 minutes ± SE),"uninfected BALB/c mice; mock-infected mice, leflunomide 5 mg/kg oral gavage once daily",33.16 ± 2.40 %
same,AFC (mean % AFC ± SE),"uninfected BALB/c mice; uninfected mice, leflunomide-treated",29.98 ± 1.5 %
same,virus replication in lung tissue at d2,RSV strain A2,unaffected
same,virus replication in lung tissue at d2,RSV strain A2; listed as LEF,no effect on virus replication
same,"virus replication at d8, treatment continued",RSV strain A2; leflunomide continued throughout the 8 day infection period,persisted at high levels
same,"virus replication at d8, treatment discontinued",RSV strain A2; leflunomide discontinued after d2,only minimally increased
same,amiloride-sensitive part of AFC,"RSV-infected BALB/c mice [2]; RSV-infected leflunomide-treated mice at d2 (61% in uninfected, −8% in untreated mice at d2)",57%
same,AFC30BASAL (mean % basal AFC after 30 minutes ± SE),"RSV-infected BALB/c mice [2]; RSV-infected mice, day 2 p.i., leflunomide 5 mg/kg oral gavage once daily, uridine 1 mg/kg i.p. q12h",33.4 ± 3.00 %
same,effect on RSV-mediated inhibition of AFC at d2 (in words),RSV-infected BALB/c mice [2],blocked RSV-induced inhibition of AFC
same,effect on RSV-mediated inhibition of AFC at d2 (in words),RSV-infected BALB/c mice [2]; listed as LEF,reverses RSV-mediated inhibition of AFC
same,effect on RSV-mediated inhibition of AFC at d2 (in words),RSV-infected BALB/c mice [2]; listed as leflunomide,prevented RSV-induced inhibition of AFC; also recorded: reversed the inhibitory effect of RSV on AFC
same,"BALF proinflammatory cytokine levels (IFN-α, IL-1β, KC, TNF-α) (in words)",[3],significantly reduced
same,"BALF proinflammatory cytokine levels (IFN-α, IL-1β, KC, TNF-α) (in words)",[3]; listed as LEF,significant reduction
same,"IFN-α, mean cytokine concentration in BALF ± SE",[3]; systemic treatment,72 ± 12 pg/mL
same,"IL-1β, mean cytokine concentration in BALF ± SE",[3]; systemic treatment,20 ± 8 pg/mL
same,"KC, mean cytokine concentration in BALF ± SE",[3]; systemic treatment,425 ± 58 pg/mL
same,"TNF-α, mean cytokine concentration in BALF ± SE",[3]; systemic treatment,0*** pg/ml
same,% ΔHR30,RSV-infected BALB/c mice [4],prevented the increase in % ΔHR30
same,SmO2 (mean blood O2 saturation),RSV-infected BALB/c mice [5],improved mean blood O2 saturation; also recorded: normalization of SmO2 readings
